The IC50 is the concentration that inhibits the measured activity by half. The term EC50 denotes the concentration giving half of the maximal effect. The term AC50 denotes the midpoint of the concentration-response curve, whichever way the signal moves.

Structures are written as SMILES. Activity calls are given as the source filed them.

Here are results for 3 molecules from ChEMBL document CHEMBL1201862, “PubChem BioAssay data set” (2004).

Holding throughout (format): functional
Assay [1] deals with T1, Sentrin-specific protease 6 (Homo sapiens, UniProt Q9GZR1).
T1 sequence (Q9GZR1 whole entry): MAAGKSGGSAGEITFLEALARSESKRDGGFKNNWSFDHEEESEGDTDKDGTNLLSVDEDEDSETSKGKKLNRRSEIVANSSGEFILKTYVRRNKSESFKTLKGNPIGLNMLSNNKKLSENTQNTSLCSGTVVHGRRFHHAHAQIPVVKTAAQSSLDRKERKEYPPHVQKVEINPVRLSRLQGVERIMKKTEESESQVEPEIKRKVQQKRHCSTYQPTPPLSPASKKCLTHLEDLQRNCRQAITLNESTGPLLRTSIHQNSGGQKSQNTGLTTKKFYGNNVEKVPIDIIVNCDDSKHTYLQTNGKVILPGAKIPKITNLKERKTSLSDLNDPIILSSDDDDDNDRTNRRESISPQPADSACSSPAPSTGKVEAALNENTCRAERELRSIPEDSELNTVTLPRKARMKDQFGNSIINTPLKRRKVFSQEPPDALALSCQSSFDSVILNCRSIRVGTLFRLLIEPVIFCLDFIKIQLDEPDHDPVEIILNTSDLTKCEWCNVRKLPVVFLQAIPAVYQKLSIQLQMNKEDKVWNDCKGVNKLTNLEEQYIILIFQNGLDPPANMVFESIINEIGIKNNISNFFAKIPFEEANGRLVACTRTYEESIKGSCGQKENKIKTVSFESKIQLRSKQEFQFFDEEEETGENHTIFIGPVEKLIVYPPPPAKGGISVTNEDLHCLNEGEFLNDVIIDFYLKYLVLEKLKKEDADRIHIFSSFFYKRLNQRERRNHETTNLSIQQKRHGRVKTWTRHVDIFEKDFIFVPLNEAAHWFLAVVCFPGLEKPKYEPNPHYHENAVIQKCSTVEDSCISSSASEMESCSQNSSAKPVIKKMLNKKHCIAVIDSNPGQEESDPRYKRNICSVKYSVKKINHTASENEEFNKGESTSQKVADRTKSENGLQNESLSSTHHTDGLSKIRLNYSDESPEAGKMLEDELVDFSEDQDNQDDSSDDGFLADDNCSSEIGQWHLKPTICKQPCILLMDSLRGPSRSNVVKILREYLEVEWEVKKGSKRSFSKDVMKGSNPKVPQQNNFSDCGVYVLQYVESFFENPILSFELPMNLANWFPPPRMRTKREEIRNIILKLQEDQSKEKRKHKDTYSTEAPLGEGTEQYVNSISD

Assay [2] concerns the target T2, Protein RecA (Mycobacterium tuberculosis, UniProt P9WHJ3).
T2 sequence (P9WHJ3 whole entry): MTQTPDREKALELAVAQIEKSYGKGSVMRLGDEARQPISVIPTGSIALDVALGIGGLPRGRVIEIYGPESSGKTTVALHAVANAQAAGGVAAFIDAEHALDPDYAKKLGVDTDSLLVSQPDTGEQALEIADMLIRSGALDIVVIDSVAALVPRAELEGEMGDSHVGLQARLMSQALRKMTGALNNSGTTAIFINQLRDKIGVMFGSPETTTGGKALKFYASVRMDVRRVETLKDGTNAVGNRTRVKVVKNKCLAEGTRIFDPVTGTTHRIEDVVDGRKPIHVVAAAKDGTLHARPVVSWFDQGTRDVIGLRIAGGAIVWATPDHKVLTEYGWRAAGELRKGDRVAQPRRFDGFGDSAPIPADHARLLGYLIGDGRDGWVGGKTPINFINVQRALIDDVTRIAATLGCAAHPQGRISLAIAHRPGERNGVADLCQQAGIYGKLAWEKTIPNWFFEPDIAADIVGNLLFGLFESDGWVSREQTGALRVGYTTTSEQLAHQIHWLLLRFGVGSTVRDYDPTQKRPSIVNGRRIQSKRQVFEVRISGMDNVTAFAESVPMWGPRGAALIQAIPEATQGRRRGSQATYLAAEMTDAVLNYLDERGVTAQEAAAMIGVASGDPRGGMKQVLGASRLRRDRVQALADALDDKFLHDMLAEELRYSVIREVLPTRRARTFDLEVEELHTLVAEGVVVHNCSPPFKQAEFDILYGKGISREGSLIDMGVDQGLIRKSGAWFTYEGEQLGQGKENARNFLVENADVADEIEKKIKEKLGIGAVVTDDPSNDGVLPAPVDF
Description: Fluorescence Cell-Free Homogeneous Dose Retest to Identify Inhibitors of RecA-Intein Splicing Activity. [Related pubchem assays (depositor defined):AID2097, AID2223, AID489010, AID492950].

Assay [3] deals with T3, Replicative DNA helicase DnaB (Mycobacterium tuberculosis, UniProt P9WMR3).
T3 sequence (P9WMR3 whole entry): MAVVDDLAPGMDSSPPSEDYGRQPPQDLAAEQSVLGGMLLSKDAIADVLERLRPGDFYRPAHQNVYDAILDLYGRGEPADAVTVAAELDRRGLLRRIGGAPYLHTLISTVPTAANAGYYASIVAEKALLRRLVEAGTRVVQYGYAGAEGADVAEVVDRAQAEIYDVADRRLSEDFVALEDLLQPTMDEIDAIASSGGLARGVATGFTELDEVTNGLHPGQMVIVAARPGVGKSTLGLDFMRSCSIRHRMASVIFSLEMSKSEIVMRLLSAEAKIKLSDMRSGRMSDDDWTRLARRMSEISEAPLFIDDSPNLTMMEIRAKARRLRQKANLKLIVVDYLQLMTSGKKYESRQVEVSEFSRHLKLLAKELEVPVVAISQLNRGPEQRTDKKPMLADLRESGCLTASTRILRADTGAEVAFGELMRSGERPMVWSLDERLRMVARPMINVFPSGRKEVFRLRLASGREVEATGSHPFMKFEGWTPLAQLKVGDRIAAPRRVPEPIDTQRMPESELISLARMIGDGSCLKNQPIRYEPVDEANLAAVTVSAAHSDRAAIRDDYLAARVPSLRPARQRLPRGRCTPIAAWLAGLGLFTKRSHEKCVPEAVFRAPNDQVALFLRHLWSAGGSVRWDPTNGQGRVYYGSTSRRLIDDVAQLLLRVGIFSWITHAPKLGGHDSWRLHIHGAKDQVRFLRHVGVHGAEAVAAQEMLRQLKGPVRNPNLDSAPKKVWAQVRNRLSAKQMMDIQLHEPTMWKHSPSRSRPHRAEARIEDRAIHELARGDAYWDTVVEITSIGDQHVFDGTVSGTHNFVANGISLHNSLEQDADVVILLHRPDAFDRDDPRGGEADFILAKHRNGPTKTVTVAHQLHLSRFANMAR
Description: DnaB intein splicing inhibitors, dose response, biochemical, cell-free fluorescence (AID 449749).
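Throughout, for IC50: Luminescence-based dose-response confirmatory assay of SENP6 inhibition, following up an ultra-high-throughput screen.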

As to `Nc1ccc(N2CCCCC2)c2nonc12`, the IC50 in assay [1] is 9.43 µM (active). Besides, the 50% effective concentration (EC50) in assay [2] was 2.76 µM (active). Also, in assay [3], the AC50 was 5.14 µM (active).

For `COc1ccc(NC(=O)/C(Cl)=C(/Cl)[S+]([O-])Cc2ccccc2)cn1` (stereo not drawn), the EC50 in assay [2] is 3.14 µM (active). In addition, the AC50 in assay [3] is 3.35 µM (active).

As for `Cc1ccc(S(=O)(=O)/N=C2\C=C(Nc3cccc(C(=O)O)c3)C(=O)c3ccccc32)c(C)c1`, in assay [1], the IC50 was 0.819 µM (active). Moreover, the EC50 in assay [2] is 15 µM (active). In assay [3], the AC50 was 27 µM (active).
